In test [1] the test system is human alveolar epithelial A549 cells. The note with it: A549 cells in vitro; cited from earlier work.
In test [2] the test system is PFKFB3. The note with it: mouse model of LPS-induced pulmonary fibrosis; cited from earlier work.
Test [3] concerns NR4A3. Nature of the test: NR4A3 protein expression under OGD-R, RAOEC (Western blot, immunofluorescence). The class given is cell-based, rat. The following applies: for degradation of NR4A3 during restoration injury: given together with CHX 100 μM, MG132 10, 30, 100 nM, CQ 10, 30, 100 μM. Here is the method: (§1) HUVEC cells were cultured in modified DMEM medium containing 10% fetal bovine serum. When the cells reached about 80% confluence, the cells were digested with 0.25% trypsin, and then pipetted evenly with modified DMEM containing 10% […]. The cell concentration was adjusted to 1×10^5 cells/mL, and the cells were seeded at 400 uL/well in a 24-well plate, and the experiment was carried out when the cells grew to about 70% confluence. RAOEC cells were cultured in high-glucose DMEM medium containing 10% fetal bovine serum, and the seeding conditions were the same as those of HUVEC. During the OGD-R injury treatment, the hypoxia workstation was set to have an oxygen concentration of 1% (1% O2, 5% CO2, 94% N2), a temperature of 37° C., and a humidity of 85%. A sugar-free DMEM medium was placed in the hypoxia workstation for pre-hypoxia for 3 hours. The medium in the culture plate was aspirated, and the plate was washed twice with preheated sugar-free DMEM medium, and 100 uL of sugar-free DMEM medium was added to each well. The culture plate was placed in the hypoxia workstation, and 300 uL of pre-hypoxic sugar-free DMEM medium was added to each well, and then the culture plate was placed in the hypoxia workstation for additional hypoxia for 4 hours. Restoration was then performed. The culture plate was taken out, and the sugar-free DMEM medium was replaced with 400 uL of normal medium containing 10% fetal bovine serum, and then the plate was placed in a 37° C. 5% CO2 cell incubator for culturing for 24 hours or a specified time period. For the cells in the normal group, it was only replaced with 400 uL of new normal medium containing 10% fetal bovine serum. […]
(§2) The cells were washed twice with pre-cooled PBS, then scraped off with a cell scraper and transferred to a 1.5 mL centrifuge tube, and centrifugation was performed at 4° C. and 1000 g for 5 minutes. […] Each protein sample was then quantified using the BCA protein quantification kit. After protein quantification, protein lysis buffer was used to adjust the protein concentration of each sample to be consistent with the protein sample with the lowest concentration, and then each protein sample was sufficiently mixed with 5× protein loading buffer at a ratio of 4:1. […]

For test [4], the system named is NR4A3. Briefly: NR4A3 protein expression under OGD-R, HUVEC (Western blot, immunofluorescence). The class given is cell-based, human. The note with it: for degradation of NR4A3 during restoration injury: given together with CHX 100 μM, MG132 10, 30, 100 nM, CQ 10, 30, 100 μM. As to the method:
as §1, §2

Test [5] has as its system NR4A3. Briefly: NR4A3 ubiquitination after OGD-R in vascular endothelial cells (immunoprecipitation with anti-ubiquitin antibodies). The test is classed as cell-based. The note with it: YC-6 10 μM; MG132 100 nM; given at restoration. As to the method:
as §1
The cells were washed twice with pre-cooled PBS, then scraped off with a cell scraper and transferred to a 1.5 mL centrifuge tube, and centrifugation was performed at 4° C. and 1000 g for 5 minutes. […] Each protein sample was then quantified using the BCA protein quantification kit. After protein quantification, IP lysis buffer was used to adjust the protein concentration of each sample to 1 mg/mL. […]

[6] abbreviates: 100 μM given during restoration after OGD.

Peptide text beside a SMILES is read from it. * marks the point of attachment. Cbz = O=C(OCc1ccccc1)*

Take `O=C(/C=C/c1cccnc1)c1ccncc1` [3PO]: the “LPS-induced apoptosis, inflammatory cytokine production, enhanced glycolytic flux and increased ROS” value in test [1] is “reversed”. In test [2], the “upregulation of PFKFB3 expression and enhanced aerobic glycolysis” value was “could reverse the significant upregulation of PFKFB3 expression and enhanced aerobic glycolysis”.
As to `C[C@@H]1C[C@@H]([C@H](O)CC2CC(=O)NC(=O)C2)C(=O)[C@@H](C)C1` [CHX, Cycloheximide], the “NR4A3 protein level during restoration” value in test [3] (setting [6]) and in test [4] (setting [6]) was “almost complete depletion of NR4A3 protein” in each case.
As for `CCN(CC)CCCC(C)Nc1ccnc2cc(Cl)ccc12` (stereo not drawn) [CQ, Chloroquine], the “degradation of NR4A3 during restoration injury” value in test [3] and in test [4] was “did not significantly inhibit the degradation of NR4A3” each time.
With `CC(C)C[C@@H](C=O)NC(=O)[C@H](CC(C)C)NC(=O)[C@H](CC(C)C)NC(=O)OCc1ccccc1` [MG132] (Cbz-Leu-Leu-Leu-aldehyde), the “degradation of NR4A3 during restoration injury” value in test [3] and in test [4] was “could inhibit the degradation of NR4A3” each time. Besides, in test [5], the “ubiquitination modification of NR4A3 induced by restoration” value is “increase of ubiquitinated NR4A3”.

Source of the values: patent publication US12594282B2, “Use of small molecule compounds in the treatment of diseases mediated by lung epithelial cell injury and/or vascular endothelial cell injury” (Guangzhou Cellprotek Pharmaceutical Co., Ltd., priority 2020, dated 2026).
